Patent US9921224B2, “Use of CD36 to identify cancer subjects for treatment” (Children's Medical Center Corporation, priority 2013, dated 2018)
Where no end group is shown, it is not given here. [ ]: non-standard residue; d: D form.

Assays:
[1] = system: LLC cells; test: In vitro cell proliferation (MTT) assay, LLC cells; type: cell-based, murine; details: 48 hours after addition of serially diluted amounts
Description: Cell proliferation was measured using the MTT (3-{4,5-Dimethylthiazol-2-yl}-2,5-diphenyltetrazolium bromide, Sigma-Aldrich) assay. Cells were seeded in 50 uL growth medium in 96 well culture plates and allowed to attach overnight. 50 uL of growth medium plus two-fold concentrated treatment reagents were then added. After each treatment time point, 10 uL of 5% MTT solution (buffered in PBS) was added to each well. Plates were incubated for an additional 4 h at 37° C. to allow MTT to be metabolically converted into formazan crystals at cell mitochondria. The formazan crystals were finally solubilized by adding 100 ul of 10% Sodium Dodecyl Sulphate in 50% N—N-Dimethylformamide to each microplate well. Absorbances at 550 and 680 nm (corresponding to formazan salt and reference wavelengths, respectively) were measured using a colorimetry microplate reader. Wells containing only complete medium were used as controls. Each experiment was performed twice, using six replicates for each drug concentration.
To test this, LLC cells were treated with either recombinant Tsp-1 or DWLPK (SEQ ID NO: 2) Psap peptide and cell proliferation was measured using an MTT assay. […] This supports the hypothesis that Tsp-1 can act directly on cancer cells, as this assay was performed in vitro in the absence of any blood vessels.

[2] = system: Ovarian cancer cells expressing CD36; test: Viability of ovarian cancer cells expressing CD36 treated with Tsp-1; type: cell-based; details: Tsp-1 100 ng, 500 ng or 1000 ng; 0 hours or 48 hours
Description: Ovarian cancer cells expressing CD36 were treated with either control or thrombospondin (Tsp-1, either 100 ng, 500 ng or 1000 ng) and the percent of viable cells was measured at 0 hours or 48 hours.

[3] = system: ovarian cancer cells expressing luciferase; test: Ovarian cancer mouse model (luciferase intensity); type: in vivo; details: high CD36 ovarian cancer model
Description: For the ovarian cancer mouse model, 1 million ovarian cancer cells expressing luciferase were injected intraperitoneally. Treatment was initiated 17 days later with cisplatin (4 mg/kg QOD), the psap peptide dWlP (SEQ ID NO: 47, 40 mg/kg QD), a combination of cisplatin and psap peptide, or PBS QD. Luciferase intensity was measured on several days beginning on about day 17 and measured over time.

[4] = system: AsPc1 human pancreatic cells; test: Pancreatic cancer mouse model; type: in vivo, SCID mice; details: for primary tumor mass: high CD36 AsPC pancreatic model, SCID mice, 20 or 40 mg/kg/day, from day 25 daily for 21 days
Description: For the pancreatic cancer mouse model, 1×10^6 AsPc1 human pancreatic cells were injected into the pancreas of SCID mice. Mice were treated either with a control or with the psap peptide dWlP (SEQ ID NO: 47, 20 mg/kg/day or 40/mg/kg/day). Treatment began on day 25 and continued daily for 21 days. The mice were then euthanized and the primary tumor mass was measured. The presence or absence of ascites was also measured.

[5] = system: B16-B16 cells; test: Melanoma mouse model; type: in vivo, mice; details: low CD36 B16-B16 melanoma; 10 or 40 mg/kg; up to about 20-25 days post cell injection
Description: For the melanoma mouse model, B16-B16 cells were injected into mice. Mice were treated with either psap peptide dWlP (SEQ ID NO: 47, 10 or 40 mg/kg) or control. The volume of the tumor was measured over time up until about 20-25 days post cell injection.

Row | Substance | cell proliferation (MTT assay) [1] | percent of viable cells (Tsp-1 mediated cell killing) [2] | metastatic disease ([3]; dWlP 40 mg/kg QD) | tumor response (luciferase intensity over time) ([3]; dWlP 40 mg/kg QD from day 17) | primary tumor mass [4] | primary tumor mass ([4]; listed as psap peptide) | mice that form ascites (inhibition of metastasis) ([4]; pancreatic cancer model, control: 4 of 10 mice) | tumor growth (tumor volume over time) [5]
1 | DWLPK: DWLPK (SEQ ID NO: 2) Psap peptide, derived from a fragment of Saposin A (Psap peptide) | did not affect cell proliferation | – | – | – | – | – | – | –
2 | Tsp-1: recombinant thrombospondin (Tsp-1), a ligand of CD36 | capable of decreasing cell proliferation | sensitive to Tsp-1 mediated cell killing in a dose-dependent manner | – | – | – | – | – | –
3 | dWlP: psap peptide dWlP (SEQ ID NO: 47); lower case D and L indicate D-amino acids ([dD]W[dL]P) | – | – | showed regression of metastatic disease | caused regression of cancer | primary tumor mass was inhibited | regressed | 1 of 19 | inhibited tumor growth but did not regress the tumor
